{"source": "patent US11884675B2", "about": "“Heterocyclic compounds as triggering receptor expressed on myeloid cells 2 agonists and methods of use” (AMGEN INC., priority 2020, dated 2024)", "key": {"[1]": {"tested_on": "hTREM2-CV knock-in transgenic mice", "experiment": "IP-10 and CCL2 expression in brain and plasma of mice after acute dosing (TREM2 target engagement, MSD V-PLEX)", "assay_type": "in vivo, mouse", "conditions": "24 hours", "description": "IP-10 expression in the brain and plasma of mice after administration of Example 192 and a TREM2 agonist antibody\nTo test TREM2 target engagement in an acute dosing paradigm using the compound of Example 192 (5-(4-chloro-2-fluorophenyl)-2,3-dimethyl-7-((2R,4S)-2-(1-methyl-1H-pyrazol-4-yl) tetrahydro-2H-pyran-4-yl)pyrido[3,4-b]pyrazine), hTREM2-CV knock-in transgenic mice were dosed using oral gavage (PO) twice a day (0 and 10 h) followed by sample collection at 24 hours. 6 animals received the compound of Example 192 at 50 mg/kg, and 6 animals received vehicle only (2% Hydroxypropyl Methylcellulose, 1% Tween-80 in PBS). In the same experiment, an anti-hTREM2 Antibody Ab-1 was dosed intraperitoneally (IP) at 100 mg/kg (control was a non-binding matched IgG isotype control). Ab-1 is a murinized version of a human TREM2 agonist antibody, first described as an engineered variant of antibody 13E7 in PCT Application Publication WO2018/195506A1. Ab-1 has an HC according to SEQ ID NO:9, an LC according to SEQ ID NO:10, and exemplifies an anti-TREM2 antibody having the CDRs according to SEQ ID NOS:1-6. Twenty-four hours following the zero-hour dose, mice were humanely euthanized for blood collection prior to cardiac perfusion with PBS and brain harvest. Brains were micro dissected into right and left regions of interest (including the cortex and hippocampus) for independent processing of cytokine and mRNA expression profiles. Whole blood was collected into EDTA-containing vials to prevent coagulation, and centrifuged to isolate the plasma fraction before storage at −80° C. Right and left hemisphere cortices were flash frozen in liquid nitrogen and stored at −80° C. before lysis and homogenization.\nPlasma and brain lysates were analyzed for IP-10 (CXCL10) and CCL2 (MCP1) expression using a Meso Scale Discovery (MSD) multi-array reader and V-PLEX kits per manufacturer's protocols.\nThe upregulation of IP-10 was more robust, and so IP-10 levels were analyzed in plasma from the same experiment."}, "[2]": {"tested_on": "hTREM2-CV knock-in transgenic mice", "experiment": "Nanostring nCounter Murine Neuroinflammation panel, pathway analysis (PC1 scores) in hippocampi", "assay_type": "in vivo, mouse", "description": "(§1) Nanostring analysis of gene expression profiles after administration of Example 192 and a TREM2 agonist antibody in a mouse model\n(§2) To assess the impact of TREM2 agonism on cellular processes and pathways, the right hemisphere hippocampi from the acute dosing of the compound of Example 192 and […] Ab-1, as described in Example A3, were analyzed for gene expression changes. Cells from frozen hippocampi were lysed, and RNA was isolated. Key gene expression profiles were analyzed using the nCounter Murine Neuroinflammation panel of 770 genes related to inflammation in the CNS. Results of individual gene expression changes relative to the mean of several housekeeper genes were grouped in pathways of interest and assigned a relative score using the nSolver analysis software.\n(§3) Nanostring nSolver software includes a module for Cell Type Profiling that identifies genes linked to cell type in an experiment. […] Pathway analysis was also performed. Genes associated with the adaptive immune response, innate immune response, microglia function, cytokine signalling, and cell cycle were all increased in hippocampi from animals treated with the compound of Example 192 and Ab-1. Table 22 reports the effects of the compound of Example 192 and Ab-1 on these genes, where the values reflect PC1 scores from principal component analysis of the gene set."}, "hTREM2 [3]": {"target": "T1, hTREM2 (Homo sapiens, UniProt Q9NZC2)", "T1 sequence (Q9NZC2 19-230)": "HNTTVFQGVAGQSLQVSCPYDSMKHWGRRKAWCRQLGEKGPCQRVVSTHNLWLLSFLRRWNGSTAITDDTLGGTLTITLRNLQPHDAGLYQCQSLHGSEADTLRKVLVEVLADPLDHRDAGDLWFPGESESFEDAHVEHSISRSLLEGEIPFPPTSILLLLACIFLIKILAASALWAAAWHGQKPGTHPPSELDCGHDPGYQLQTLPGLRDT", "T1 sequence (O43914 22-113 partner)": "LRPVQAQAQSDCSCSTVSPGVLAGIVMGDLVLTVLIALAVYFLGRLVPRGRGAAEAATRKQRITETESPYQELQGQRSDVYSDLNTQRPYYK", "experiment": "TREM2 activity by cellular Syk phosphorylation (AlphaScreen/AlphaLISA) in TREM2/DAP12-HEK cells, used for Examples 1-305", "assay_type": "cell-based", "set-up": "expressed in transfected cells", "conditions": "HEK293 Cells", "outline": "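Single-cell-cloned HEK293 cells overexpressing TREM2 and DAP12, seeded 20 h, exposed to test articles (1% final DMSO) for 45 min at room temperature. Lysates read for phospho-Syk (Tyr525/526) vs total Syk by AlphaScreen. Signal normalised as percent of control between isotype IgG and 100 nM anti-TREM2 antibody; 4-parameter logistic fit.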"}, "[4]": {"tested_on": "hTREM2-CV knock-in transgenic mice", "experiment": "Nanostring nCounter Murine Neuroinflammation panel, Cell Type Profiling scores in hippocampi", "assay_type": "in vivo, mouse", "description": "as §1, §2, §3"}, "hTREM2 [5]": {"target": "T1, hTREM2", "experiment": "TREM2 agonist potency by Syk phosphorylation (AlphaLisa) in HEK293T-hTREM2 cells, used for Examples 306-429", "assay_type": "cell-based", "set-up": "expressed in transfected cells; host or cells: HEK293T (HEK293T-hTREM2 cells)", "conditions": "HEK293 Cells", "outline": "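HEK293T cells expressing human TREM2 and DAP12, plated 20-24 h before, were exposed to compounds for 45 min at room temperature, then lysed. Phospho-Syk read by AlphaLisa; % activation from a standard curve and EC50 from a four-parameter log(agonist) fit.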"}, "[6]": {"conditions": "Example 192 50 mg/kg PO at 0 and 10 h, Ab-1 100 mg/kg IP, compared to vehicle-treated animals"}, "[7]": {"conditions": "PC1 score, mean score (standard deviation)"}, "[8]": {"conditions": "hippocampi after acute dosing, mean score (standard deviation)"}, "[9]": {"conditions": "right hemisphere hippocampi, acute dosing as in Example A3"}}, "note": "Marks after values point to notes of the source that are not given here.", "data": [{"smiles": "Cc1nc2cc([C@H]3CCO[C@@H](c4cnn(C)c4)C3)nc(-c3ccc(Cl)cc3F)c2nc1C", "note": "(single isomer, unassigned) [Example 192]", "values": [{"measurement": "peripheral IP-10 levels in the plasma fraction", "setting": "[1]; 50 mg/kg PO at 0 and 10 h", "result": "no apparent cytokine upregulation"}, {"measurement": "CCL2 (MCP1) in cortical lysates", "setting": "[1]; [6]", "result": "induced upregulation"}, {"measurement": "IP-10 (CXCL10) in cortical lysates", "setting": "[1]; [6]", "result": "induced upregulation"}, {"measurement": "Pathway Score Adaptive Immune Response", "setting": "[2]; [7]", "result": "0.639 (0.929) *"}, {"measurement": "Pathway Score Cell Cycle", "setting": "[2]; [7]", "result": "0.398 (0.414) *"}, {"measurement": "Pathway Score Cytokine Signaling", "setting": "[2]; [7]", "result": "0.180 (0.514) *"}, {"measurement": "Pathway Score Innate Immune Response", "setting": "[2]; [7]", "result": "0.490 (0.674) *"}, {"measurement": "Pathway Score Microglia Function", "setting": "[2]; [7]", "result": "0.345 (0.908) *"}, {"measurement": "genes associated with cell cycle", "setting": "[2]; acute dosing as in Example A3", "result": "increased"}, {"measurement": "genes associated with cytokine signalling", "setting": "[2]; acute dosing as in Example A3", "result": "increased"}, {"measurement": "genes associated with microglia function", "setting": "[2]; acute dosing as in Example A3", "result": "increased"}, {"measurement": "genes associated with the adaptive immune response", "setting": "[2]; acute dosing as in Example A3", "result": "increased"}, {"measurement": "genes associated with the innate immune response", "setting": "[2]; acute dosing as in Example A3", "result": "increased"}, {"measurement": "EC50", "setting": "hTREM2 [3]", "result": "≤ 50", "unit": "nM"}, {"measurement": "hTREM2 Emax", "setting": "hTREM2 [3]", "result": "++++ (Emax>250)"}, {"measurement": "Microglia Score (Cell Type Profiling)", "setting": "[4]; [8]", "result": "6.82 (0.090) *"}, {"measurement": "astrocyte score (Cell Type Profiling)", "setting": "[4]; [8]", "result": "8.86 (0.077)"}, {"measurement": "neuron score (Cell Type Profiling)", "setting": "[4]; [8]", "result": "8.81 (0.185)"}, {"measurement": "astrocyte score (Cell Type Profiling)", "setting": "[4]; [9]", "result": "no change"}, {"measurement": "microglia score (Cell Type Profiling, microglial-associated genes)", "setting": "[4]; [9]", "result": "increase"}, {"measurement": "neuron score (Cell Type Profiling)", "setting": "[4]; [9]", "result": "no change"}]}, {"smiles": "Cc1cnc2c(-c3ccc(F)cc3F)nc([C@H]3C[C@@H](C)O[C@@H](c4cnn(C5CC5)c4)C3)nc2n1", "note": "[Example 415, 2-((2R,4S,6R)-2-(1-cyclopropyl-1H-pyrazol-4-yl)-6-methyltetrahydro-2H-pyran-4-yl)-4-(2,4-difluorophenyl)-7-methylpteridine]", "values": [{"measurement": "EC50", "setting": "hTREM2 [5]", "result": "50 to 500", "unit": "nM"}]}, {"smiles": "Cc1ccc2c(-c3ccc(F)cc3F)nc([C@H]3C[C@@H](C)O[C@@H](c4cnn(C5CC5)c4)C3)nc2n1", "note": "[Example 416, 2-((2R,4S,6R)-2-(1-cyclopropyl-1H-pyrazol-4-yl)-6-methyltetrahydro-2H-pyran-4-yl)-4-(2,4-difluorophenyl)-7-methylpyrido[2,3-d]pyrimidine]", "values": [{"measurement": "EC50", "setting": "hTREM2 [5]", "result": "50 to 500", "unit": "nM"}]}, {"smiles": "Cc1cnc2c(-c3ccc(F)cc3F)nc([C@H]3C[C@@H](C)O[C@@H](c4cnn(C5CC5)c4)C3)cc2n1", "note": "[Example 417, 7-((2R,4S,6R)-2-(1-cyclopropyl-1H-pyrazol-4-yl)-6-methyltetrahydro-2H-pyran-4-yl)-5-(2,4-difluorophenyl)-2-methylpyrido[3,4-b]pyrazine]", "values": [{"measurement": "EC50", "setting": "hTREM2 [5]", "result": "50 to 500", "unit": "nM"}]}, {"smiles": "Cc1cnc2c(-c3ccc(F)cc3F)nc(N3C[C@@H](C)O[C@@H](c4cnn(C5CC5)c4)C3)nc2n1", "note": "[Example 420, (2S,6R)-2-(1-cyclopropyl-1H-pyrazol-4-yl)-4-(4-(2,4-difluorophenyl)-7-methylpteridin-2-yl)-6-methylmorpholine]", "values": [{"measurement": "EC50", "setting": "hTREM2 [5]", "result": "≤ 50", "unit": "nM"}]}, {"smiles": "Cc1cnc2c(C34CC(C)(C3)C4)nc([C@H]3C[C@@H](C)O[C@@H](c4cnn(C5CC5)c4)C3)cc2n1", "note": "[Example 421, 7-((2R,4S,6R)-2-(1-cyclopropyl-1H-pyrazol-4-yl)-6-methyltetrahydro-2H-pyran-4-yl)-2-methyl-5-(3-methylbicyclo[1.1.1]pentan-1-yl)pyrido[3,4-b]pyrazine]", "values": [{"measurement": "EC50", "setting": "hTREM2 [5]", "result": "500 to 3000", "unit": "nM"}]}, {"smiles": "Cc1cnc2c(-c3ccc(Cl)cc3F)nc(N3C[C@@H](c4cnn(C5CC5)c4)O[C@@H](C)C3)nc2n1", "note": "[Example 423, (2R,6S)-4-(4-(4-chloro-2-fluorophenyl)-7-methylpteridin-2-yl)-2-(1-cyclopropyl-1H-pyrazol-4-yl)-6-methylmorpholine]", "values": [{"measurement": "EC50", "setting": "hTREM2 [5]", "result": "50 to 500", "unit": "nM"}]}, {"smiles": "Cc1nc2nc(N3C[C@@H](c4cnn(C5CC5)c4)O[C@@H](C)C3)nc(-c3ccc(Cl)cc3F)c2nc1C", "note": "[Example 424, (2R,6S)-4-(4-(4-chloro-2-fluorophenyl)-6,7-dimethylpteridin-2-yl)-2-(1-cyclopropyl-1H-pyrazol-4-yl)-6-methylmorpholine]", "values": [{"measurement": "EC50", "setting": "hTREM2 [5]", "result": "≤ 50", "unit": "nM"}]}, {"smiles": "Cc1nc2nc(N3C[C@@H](C)O[C@@H](c4cnn(C5CC5)c4)C3)nc(-c3ccc(Cl)cc3F)c2nc1C", "note": "[Example 425, (2S,6R)-4-(4-(4-chloro-2-fluorophenyl)-6,7-dimethylpteridin-2-yl)-2-(1-cyclopropyl-1H-pyrazol-4-yl)-6-methylmorpholine]", "values": [{"measurement": "EC50", "setting": "hTREM2 [5]", "result": "≤ 50", "unit": "nM"}]}, {"smiles": "Cc1nc2nc(N3C[C@@H](c4cnn(C5CC5)c4)O[C@@H](C)C3)nc(-c3ccc(F)cc3F)c2nc1C", "note": "[Example 426, (2R,6S)-2-(1-cyclopropyl-1H-pyrazol-4-yl)-4-(4-(2,4-difluorophenyl)-6,7-dimethylpteridin-2-yl)-6-methylmorpholine]", "values": [{"measurement": "EC50", "setting": "hTREM2 [5]", "result": "≤ 50", "unit": "nM"}]}, {"smiles": "Cc1nc2nc(N3C[C@@H](C)O[C@@H](c4cnn(C5CC5)c4)C3)nc(-c3ccc(F)cc3F)c2nc1C", "note": "[Example 427, (2S,6R)-2-(1-cyclopropyl-1H-pyrazol-4-yl)-4-(4-(2,4-difluorophenyl)-6,7-dimethylpteridin-2-yl)-6-methylmorpholine]", "values": [{"measurement": "EC50", "setting": "hTREM2 [5]", "result": "≤ 50", "unit": "nM"}]}, {"smiles": "Cc1ccc2c(C34CC(C(C)C)(C3)C4)nc([C@H]3CCO[C@@H](c4cnn(C5CC5)c4)C3)nc2n1", "note": "[Example 428, 2-((2R,4S)-2-(1-cyclopropyl-1H-pyrazol-4-yl)tetrahydro-2H-pyran-4-yl)-4-(3-isopropylbicyclo[1.1.1]pentan-1-yl)-7-methylpyrido[2,3-d]pyrimidine]", "values": [{"measurement": "EC50", "setting": "hTREM2 [5]", "result": "50 to 500", "unit": "nM"}]}, {"smiles": "Cc1ccc2c(C(C)C)nc([C@H]3C[C@@H](C)O[C@@H](c4cnn(C5CC5)c4)C3)nc2n1", "note": "[Example 429, 2-((2R,4S,6R)-2-(1-cyclopropyl-1H-pyrazol-4-yl)-6-methyltetrahydro-2H-pyran-4-yl)-4-isopropyl-7-methylpyrido[2,3-d]pyrimidine]", "values": [{"measurement": "EC50", "setting": "hTREM2 [5]", "result": "500 to 3000", "unit": "nM"}]}]}
